We go through two substances from patent publication US20250057928A1, “VACCINE COMPOSITION FOR INDUCING ANTI-IL-23 ANTIBODY” (OSAKA UNIVERSITY, priority 2021, published 2025).

In one test the test system is epitope peptide. The experiment in a line: Antibody titer (GMT) of serum of hairless rats, ELISA. It is filed as in vivo, rat. The conditions noted are these: 1 mg/body intradermal 3 times at two-week intervals, serum at 6 weeks. As for the experimental part: AJP001 conjugated peptide having one of the B cell epitope sequences of SEQ ID NOs: 1-5 was dissolved in physiological saline and intradermally administered twice to BALB/c mice (female, 6-week-old, N=5-6) at 0.5 mg/body at 2-week intervals. Blood was collected before administration and 5 weeks after the initial administration, and the antibody titer against each AJP001 conjugated peptide and the binding ability to recombinant mouse IL-23 protein (rmIL-23) were measured by the ELISA method. Specifically, a 96-well plate immobilized with an epitope peptide dissolved at 10 μg/mL in carbonate buffer was blocked with 5% skim milk/PBS, and then serum serially diluted with 5% skim milk/PBS was added, and the mixture was left standing at 4° C. overnight. […] After washing the wells with PBS-T, TMB solution (SIGMA) was added, the wells were allowed to stand for 30 min in the dark, the reaction was stopped by adding 0.5M H2SO4, and the absorbance at 450 nm was measured using a plate reader. The serum dilution rate that gave 1/2 (OD=1.75) of the maximum absorbance was defined as the antibody titer, and the geometric mean titer: GMT was calculated from the individual values. Binding to IL-23 protein was measured by the ELISA method in the same manner as the antibody titer, using rmIL-23 (Antibodies-online GmbH) as the solid-phased antigen and goat serum for blocking. […]
On the technique in general: ELISA stands for enzyme-linked immunosorbent assay.

Test [1] has as its system IL-17 production when mouse splenocytes were stimulated with rhIL-23. As to the kind of experiment: Neutralization activity of IgG purified from monkey antiserum: IL-17 production of mouse splenocytes stimulated with rhIL-23. It is filed as cell-based. The conditions noted are these: 300 μg/mL of IgG derived from monkey antiserum (6 weeks). The procedure:
AJP001 conjugated peptide (SEQ ID NOs: 6-37) was dissolved in physiological saline, mixed with an equal amount of 2% Alhydrogel (invivogen), and this was intradermally administered to BALB/c mice (female, 6-week-old, N=5-6) at 0.5 mg/body 3 times at two-week intervals. Blood was collected before administration and at the time point of 6 weeks after initial administration, and the antibody titer (GMT) to each epitope sequence and binding ability to recombinant human IL-23 protein (rhIL-23) (Peprotech) were measured by the ELISA method (same method as in Example 1). The binding to rhIL-23 was evaluated by a binding ratio to normal serum by calculating the ratio of the absorbance of a well added with normal mouse serum to the absorbance of a well added with antiserum derived from a mouse administered with each AJP001 conjugated peptide (SEQ ID NOs: 6-37). In addition, the neutralization activity of mouse antiserum was evaluated using an action on IL-17 production in rhIL-23 stimulated mouse splenocyte as an index. […]
Then, IgG was purified using Protein G HP spin Trap (GE Healthcare) from the monkey antiserum obtained 6 weeks after the initial administration, and the action on IL-17 production when mouse splenocytes were stimulated with rhIL-23 was evaluated (same method as in Example 5).

In another test the test system is rhIL-23. The experiment in a line: Binding of monkey antiserum to rhIL-23, ELISA. More on the design: species or system human. To be noted: monkey antiserum 6 weeks after the initial administration. The procedure: AJP001 conjugated peptide (SEQ ID NO: 6) was dissolved in physiological saline and subcutaneously administered to Macaca fascicularis (female, […], N=4) at 5 mg/body 3 times at two-week intervals. Blood was collected every two weeks from the first day of administration until week 16, and the antibody titer (GMT) and binding to IL-23 of the serum at each time point were measured by the ELISA method (same method as in Example 1; the secondary antibody used was Anti-Monkey IgG (Abcam)). In FIG. 7, “*” means P<0.05.

Where no end group is shown, it is not given here.

As to “SEQ ID NO 2: AJP001-Ahx-B cell epitope peptide conjugate; epitope SSSQQWQR (mouse 152-159) (not fully specified (N-terminus); listed as Mus musculus)”, the “antibody titer (GMT)” value with epitope peptide is “increase”.

As to “SEQ ID NO 6: AJP001-Ahx-B cell epitope peptide conjugate; epitope SPSQPWQR (human 151-158) (not fully specified (N-terminus); listed as Homo sapiens)”, in test [1], the IL-17 production entry is “suppressed”. The “binding ability to rhIL-23” value in the test on rhIL-23 was “showed binding ability”.
